The structures appear in SMILES notation. pKi: −log10 of the molar value.

As a reminder, the pKi is −log10 of the Ki, conventionally taken in molar units. A high value points to a low Ki.

This assay deals with benzodiazepine site of the GABAA receptor. Put plainly: Ligand binding assay of Example 6 (3H-Ro15-1788 competition, purified rat cortical membranes). The following applies: ligand binding assay of Example 6; Table 5 Ki.
For `CCc1c(Cn2ccnc2-c2ncccc2F)ncn2nc(C)nc12` [Compound 244, 8-ethyl-7-{[2-(3-fluoropyridin-2-yl)-1H-imidazol-1-yl]methyl}-2-methyl[1,2,4]triazolo[1,5-c]pyrimidine], the pKi was more than 6.00.
With `CCCc1c(Cn2ccnc2-c2ncccc2F)ncn2nc(-c3cccnc3)nc12` [Compound 225, 7-[2-(3-Fluoro-pyridin-2-yl)-imidazol-1-ylmethyl]-8-propyl-2-pyridin-3-yl-[1,2,4]triazolo[1,5-c]pyrimidine] the figure was more than 6.00; with `CCCc1c(Cn2ccnc2-c2ncccc2F)ncn2nc(CC(F)(F)F)nc12` [Compound 257, 7-{[2-(3-fluoropyridin-2-yl)-1H-imidazol-1-yl]methyl}-8-propyl-2-(2,2,2-trifluoroethyl)[1,2,4]triazolo[1,5-c]pyrimidine], more than 6.00.
With `CCCc1c(Cn2ccnc2-c2ncccc2F)ncn2nc(Cl)nc12` [Compound 256, 2-chloro-7-{[2-(3-fluoropyridin-2-yl)-1H-imidazol-1-yl]methyl}-8-propyl[1,2,4]triazolo[1,5-c]pyrimidine] the figure was more than 6.00; with `CCCc1c(Cn2ccnc2-c2ncccc2F)ncn2nc(C#N)nc12` [Compound 240, 7-[2-(3-Fluoro-pyridin-2-yl)-imidazol-1-ylmethyl]-8-propyl-[1,2,4]triazolo[1,5-c]pyrimidine-2-carbonitrile], more than 6.00.
With `CCCc1c(Cn2ccnc2-c2cccc(C(F)(F)F)n2)ncn2ncnc12` [Compound 235, 8-Propyl-7-[2-(6-trifluoromethyl-pyridin-2-yl)-imidazol-1-ylmethyl]-[1,2,4]triazolo[1,5-c]pyrimidine] the figure was more than 6.00.
With `CCc1c(Cn2ccnc2-c2ncccc2F)ncn2ncnc12` [Compound 234, 8-ethyl-7-{[2-(3-fluoropyridin-2-yl)-1H-imidazol-1-yl]methyl}[1,2,4]triazolo[1,5-c]pyrimidine], the pKi is more than 6.00.
`COCc1c(Cn2ccnc2-c2ncccc2F)ncn2nc(C)nc12` [Compound 220, 7-[2-(3-Fluoro-pyridin-2-yl)-imidazol-1-ylmethyl]-8-methoxymethyl-2-methyl-[1,2,4]triazolo[1,5-c]pyrimidine]: the pKi is more than 6.00.
With `CCCc1c(Cn2ccnc2-c2ncccc2F)ncn2nc(COCC)nc12` [Compound 261, 2-(ethoxymethyl)-7-{[2-(3-fluoropyridin-2-yl)-1H-imidazol-1-yl]methyl}-8-propyl[1,2,4]triazolo[1,5-c]pyrimidine], the pKi was more than 6.00.
With `N#Cc1cccnc1-c1nccn1Cc1ncn2ncnc2c1CCCF` [Compound 236, 2-{1-[8-(3-Fluoro-propyl)-[1,2,4]triazolo[1,5-c]pyrimidin-7-ylmethyl]-1H-imidazol-2-yl}-nicotinonitrile] the figure was more than 6.00; with `Cc1nc2c(CCOCc3ccccc3)c(Cn3ccnc3-c3ncccc3F)ncn2n1` [Compound 227, 8-(2-Benzyloxy-ethyl)-7-[2-(3-fluoro-pyridin-2-yl)-imidazol-1-ylmethyl]-2-methyl-[1,2,4]triazolo[1,5-c]pyrimidine], more than 6.00.
With `Cc1nc2c(CCO)c(Cn3ccnc3-c3ncccc3F)ncn2n1` [Compound 231, 2-{7-[2-(3-Fluoro-pyridin-2-yl)-imidazol-1-ylmethyl]-2-methyl-[1,2,4]triazolo[1,5-c]pyrimidin-8-yl}-ethanol] the figure was more than 6.00.
With `Cc1nc2c(CCF)c(Cn3ccnc3-c3ncccc3F)ncn2n1` [Compound 229, 8-(2-Fluoro-ethyl)-7-[2-(3-fluoro-pyridin-2-yl)-imidazol-1-ylmethyl]-2-methyl-[1,2,4]triazolo[1,5-c]pyrimidine] the figure was more than 6.00.
`N#Cc1cccc(-c2nccn2Cc2ncn3ncnc3c2CCCF)n1` [Compound 237, 6-{1-[8-(3-Fluoro-propyl)-[1,2,4]triazolo[1,5-c]pyrimidin-7-ylmethyl]-1H-imidazol-2-yl}-pyridine-2-carbonitrile]: the negative-log Ki (pKi) was more than 6.00.

The values above are taken from patent US7271170B2, “Imidazo-pyrimidines and triazolo-pyrimidines: benzodiazepine receptor ligands” (Neurogen Corporation, priority 2003, dated 2007).
